Measured values from US9809623B2, “α4β7 peptide monomer and dimer antagonists” (Protagonist Therapeutics, Inc., priority 2014, dated 2017).
Like-named read-outs stand apart in the source and are kept apart here. Numbered stars: 1 amine (or outer) side, 2 acyl side, 3 side chain; on linkers, the order of the positions; unused ones are H or OH. Bridge positions count the residues as written; N and C are the ends. Square brackets hold non-standard residues; d marks the D form. Peptide text beside a SMILES is read from it. I, II: the chains in the order shown. Phe(4-COOH) = N[C@@H](Cc1ccc(C(=O)O)cc1)C(=O)O; Diglycolyl = O=C(COCC(=O)[*:2])[*:1]; NMeR = CN[C@@H](CCCNC(=N)N)C(=O)O; β3hE = N[C@@H](CCC(=O)O)CC(=O)O; Pen = CC(C)(S)[C@H](N)C(=O)O

Assays:
[1] = target: T1, α4β1 (Homo sapiens, UniProt P05556+P13612, DEL729-798); assay: α4β1-VCAM Competition ELISA; assay type: binding
T1 construct: purchased R&D Systems 5668-A4
Procedure, shortened: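 Recombinant α4β1 (60 nM final) competed with serially diluted peptides (top final 100 μM) for VCAM-1 Fc coated at 400 ng/well, in Tris pH 7.6 with 1 mM MnCl2 or MgCl2, for 2 h at 37 °C. Bound integrin was detected with anti-CD49d 9F10 plus HRP anti-mouse IgG, using TMB read at 450 nm.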

[2] = target: T2, rh integrin α4β7 (Homo sapiens, UniProt P13612+P26010); assay: α4β7-MAdCAM Competition ELISA; assay type: binding
T2 construct: purchased R&D Systems 5397-A30
Procedure, shortened: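 Recombinant human α4β7 was captured on nickel plates at 800 ng/well. Peptide in 3-fold serial dilution (final top 10 μM) competed with MAdCAM-1 (final 10 nM) for 1 h at room temperature in 50 mM Tris pH 7.6, 150 mM NaCl, 1 mM MnCl2 or MgCl2. Bound MAdCAM-1 was detected with anti-human IgG1-HRP/TMB at A450.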

[3] = target: α4β7 (Homo sapiens, UniProt P13612+P26010); assay: α4β7-MAdCAM Cell Adhesion Assay (RPMI 8866 human cells); assay type: cell-based; set-up: host or cells: RPMI 8866 human B lymphoblastoid cells
Procedure, shortened: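 Washed RPMI 8866 cells (200,000/well) in DMEM with 0.1% BSA, 10 mM HEPES pH 7, 1 mM MnCl2 adhered to rh MAdCAM-1/Fc-coated wells with serially diluted peptides, 30-45 min at 37 °C. After three washes, bound cells quantified by MTT, A570, cell-free background subtracted for dose response.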

[4] = Table 4-B, read-out: ELISA_α4β1 IC50
[5] = Table 4-B, read-out: ELISA α4β7 IC50
[6] = Table 4-B, read-out: Cell Adhesion α4β7 IC50

T1 sequence (P13612 34-977 limits assumed, stated change not applied): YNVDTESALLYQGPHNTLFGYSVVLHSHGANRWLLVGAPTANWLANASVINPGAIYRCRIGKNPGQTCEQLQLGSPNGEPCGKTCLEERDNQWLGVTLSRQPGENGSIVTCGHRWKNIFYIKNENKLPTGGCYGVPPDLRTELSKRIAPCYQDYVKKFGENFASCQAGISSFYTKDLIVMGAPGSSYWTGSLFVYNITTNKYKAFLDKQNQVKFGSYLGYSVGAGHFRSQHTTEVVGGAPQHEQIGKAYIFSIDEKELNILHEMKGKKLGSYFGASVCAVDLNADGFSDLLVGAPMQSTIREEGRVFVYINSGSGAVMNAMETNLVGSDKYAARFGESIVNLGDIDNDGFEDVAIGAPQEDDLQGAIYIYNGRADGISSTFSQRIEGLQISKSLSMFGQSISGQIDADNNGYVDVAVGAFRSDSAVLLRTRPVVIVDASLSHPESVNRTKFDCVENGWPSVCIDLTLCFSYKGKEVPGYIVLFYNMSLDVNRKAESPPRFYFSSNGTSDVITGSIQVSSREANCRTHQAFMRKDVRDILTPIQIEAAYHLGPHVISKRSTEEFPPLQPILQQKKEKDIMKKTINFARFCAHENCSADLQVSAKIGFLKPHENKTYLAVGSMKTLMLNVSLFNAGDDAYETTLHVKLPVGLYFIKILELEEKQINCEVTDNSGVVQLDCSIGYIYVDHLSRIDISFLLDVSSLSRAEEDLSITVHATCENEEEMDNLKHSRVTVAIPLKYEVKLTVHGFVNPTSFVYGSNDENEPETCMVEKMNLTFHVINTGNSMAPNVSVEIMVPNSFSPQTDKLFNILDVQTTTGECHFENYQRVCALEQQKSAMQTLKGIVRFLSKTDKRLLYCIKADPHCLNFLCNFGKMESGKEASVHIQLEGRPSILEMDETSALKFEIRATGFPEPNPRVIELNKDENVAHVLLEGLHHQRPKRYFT
T1 sequence (P05556 21-728 limits assumed, stated change not applied): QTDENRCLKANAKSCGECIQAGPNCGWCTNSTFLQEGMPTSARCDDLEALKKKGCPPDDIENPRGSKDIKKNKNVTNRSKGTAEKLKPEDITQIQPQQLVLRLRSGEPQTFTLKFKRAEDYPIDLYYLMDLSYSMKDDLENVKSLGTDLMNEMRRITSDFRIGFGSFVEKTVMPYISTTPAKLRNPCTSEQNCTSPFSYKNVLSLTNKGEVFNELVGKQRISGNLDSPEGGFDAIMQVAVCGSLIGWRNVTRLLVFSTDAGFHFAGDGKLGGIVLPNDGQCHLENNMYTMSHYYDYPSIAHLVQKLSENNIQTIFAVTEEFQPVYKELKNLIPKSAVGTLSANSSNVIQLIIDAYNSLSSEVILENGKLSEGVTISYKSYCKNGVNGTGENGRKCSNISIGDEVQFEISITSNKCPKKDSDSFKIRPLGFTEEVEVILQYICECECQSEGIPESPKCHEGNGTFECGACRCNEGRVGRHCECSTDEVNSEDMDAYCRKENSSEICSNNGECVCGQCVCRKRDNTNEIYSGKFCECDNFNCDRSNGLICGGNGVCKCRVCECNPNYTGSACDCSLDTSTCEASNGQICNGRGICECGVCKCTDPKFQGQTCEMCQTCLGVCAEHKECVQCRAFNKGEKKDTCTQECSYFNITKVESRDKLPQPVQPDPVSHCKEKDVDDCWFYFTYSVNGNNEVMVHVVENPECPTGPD
T2 sequence (P13612 34-977 limits assumed): as the sequence (P13612 34-977 limits assumed, stated change not applied) above
T2 sequence (P26010 20-723 limits assumed): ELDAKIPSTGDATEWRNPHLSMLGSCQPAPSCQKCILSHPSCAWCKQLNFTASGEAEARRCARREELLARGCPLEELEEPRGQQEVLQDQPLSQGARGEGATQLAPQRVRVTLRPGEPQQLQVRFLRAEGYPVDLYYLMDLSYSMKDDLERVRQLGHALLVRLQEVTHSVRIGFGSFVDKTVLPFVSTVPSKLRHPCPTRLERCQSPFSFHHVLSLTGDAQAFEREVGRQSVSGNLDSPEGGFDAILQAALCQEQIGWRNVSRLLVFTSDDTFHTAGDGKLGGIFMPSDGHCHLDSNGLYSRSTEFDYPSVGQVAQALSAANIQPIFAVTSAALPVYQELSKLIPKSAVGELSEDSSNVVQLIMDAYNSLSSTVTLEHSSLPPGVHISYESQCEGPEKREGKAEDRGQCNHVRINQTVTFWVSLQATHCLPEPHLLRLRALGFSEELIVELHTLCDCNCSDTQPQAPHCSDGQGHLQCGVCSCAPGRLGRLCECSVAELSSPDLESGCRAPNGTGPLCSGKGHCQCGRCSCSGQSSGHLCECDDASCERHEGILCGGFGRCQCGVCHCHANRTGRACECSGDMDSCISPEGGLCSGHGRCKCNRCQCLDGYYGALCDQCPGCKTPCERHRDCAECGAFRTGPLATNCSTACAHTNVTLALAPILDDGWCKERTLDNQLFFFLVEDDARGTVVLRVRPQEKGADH
α4β7, sequence (P13612 34-1032): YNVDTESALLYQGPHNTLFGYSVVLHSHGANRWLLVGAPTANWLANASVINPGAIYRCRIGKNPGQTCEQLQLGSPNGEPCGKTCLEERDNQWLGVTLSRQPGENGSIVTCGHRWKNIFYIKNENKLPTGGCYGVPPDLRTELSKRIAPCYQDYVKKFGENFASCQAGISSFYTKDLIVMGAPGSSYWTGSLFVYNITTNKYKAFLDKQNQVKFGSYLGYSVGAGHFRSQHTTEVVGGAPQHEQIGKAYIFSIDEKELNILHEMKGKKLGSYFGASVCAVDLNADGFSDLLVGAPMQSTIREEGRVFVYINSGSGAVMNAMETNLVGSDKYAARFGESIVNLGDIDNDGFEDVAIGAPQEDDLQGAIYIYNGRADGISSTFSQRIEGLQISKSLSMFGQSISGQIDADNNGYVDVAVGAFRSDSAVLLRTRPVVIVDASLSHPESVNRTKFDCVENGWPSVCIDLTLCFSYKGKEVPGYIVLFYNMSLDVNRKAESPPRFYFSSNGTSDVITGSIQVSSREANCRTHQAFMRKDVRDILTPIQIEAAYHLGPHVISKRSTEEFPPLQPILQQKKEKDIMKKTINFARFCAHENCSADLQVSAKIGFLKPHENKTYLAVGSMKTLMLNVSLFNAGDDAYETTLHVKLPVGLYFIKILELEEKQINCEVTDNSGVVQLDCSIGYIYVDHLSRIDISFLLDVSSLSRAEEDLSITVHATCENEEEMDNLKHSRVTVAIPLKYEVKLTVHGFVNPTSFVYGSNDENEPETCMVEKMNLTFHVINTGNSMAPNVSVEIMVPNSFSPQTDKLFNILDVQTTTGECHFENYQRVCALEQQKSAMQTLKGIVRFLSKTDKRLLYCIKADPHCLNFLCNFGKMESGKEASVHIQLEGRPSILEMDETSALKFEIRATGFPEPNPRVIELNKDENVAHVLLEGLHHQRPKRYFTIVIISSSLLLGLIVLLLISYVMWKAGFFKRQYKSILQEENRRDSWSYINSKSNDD
α4β7, sequence (P26010 20-798): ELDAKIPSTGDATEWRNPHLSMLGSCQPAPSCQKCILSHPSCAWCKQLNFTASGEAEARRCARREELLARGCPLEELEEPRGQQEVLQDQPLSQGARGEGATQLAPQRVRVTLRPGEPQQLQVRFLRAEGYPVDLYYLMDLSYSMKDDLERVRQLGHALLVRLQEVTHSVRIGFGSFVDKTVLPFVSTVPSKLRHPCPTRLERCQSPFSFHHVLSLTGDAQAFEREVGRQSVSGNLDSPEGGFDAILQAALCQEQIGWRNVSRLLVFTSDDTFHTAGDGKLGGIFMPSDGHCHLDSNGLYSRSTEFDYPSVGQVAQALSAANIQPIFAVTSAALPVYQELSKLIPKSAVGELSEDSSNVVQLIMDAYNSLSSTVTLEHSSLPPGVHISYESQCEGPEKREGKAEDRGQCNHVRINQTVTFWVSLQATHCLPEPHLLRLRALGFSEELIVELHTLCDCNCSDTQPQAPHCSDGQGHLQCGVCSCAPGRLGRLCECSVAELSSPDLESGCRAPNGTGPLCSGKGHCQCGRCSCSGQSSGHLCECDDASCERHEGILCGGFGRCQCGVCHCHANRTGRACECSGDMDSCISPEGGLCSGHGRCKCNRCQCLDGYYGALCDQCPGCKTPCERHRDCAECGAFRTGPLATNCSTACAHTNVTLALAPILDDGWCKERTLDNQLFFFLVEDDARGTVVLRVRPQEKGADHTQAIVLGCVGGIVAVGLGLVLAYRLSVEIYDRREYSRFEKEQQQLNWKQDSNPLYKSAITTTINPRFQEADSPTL

| Structure (SMILES) | IC50 [1, 4] | IC50 [2, 5] | IC50 [3, 6] | IC50 ([1]; Table 3-B, Selectivity (α4β1), range classes, read-out: α4β1 ELISA IC50) | IC50 ([2]; Table 3-B, Potency (α4β7), range classes, read-out: α4β7 ELISA IC50) | IC50 ([3]; Table 3-B, Potency (α4β7), range classes, read-out: α4β7 cell (Hu) IC50) |
| --- | --- | --- | --- | --- | --- | --- |
| CC(=O)N[C@@H]1C(=O)N(C)[C@@H](CCCNC(=N)N)C(=O)N[C@@H](CO)C(=O)N[C@@H](CC(=O)O)C(=O)N[C@@H]([C@@H](C)O)C(=O)N[C@@H](CC(C)C)C(=O)N[C@H](C(=O)N[C@@H](Cc2c[nH]c3ccccc23)C(=O)N[C@@H](CCC(=O)O)C(=O)N[C@H](CCCCNC(=O)COCC(=O)NCCCC[C@@H](NC(=O)[C@H](CCC(=O)O)NC(=O)[C@H](Cc2c[nH]c3ccccc23)NC(=O)[C@H]2NC(=O)[C@H](CC(C)C)NC(=O)[C@H]([C@@H](C)O)NC(=O)[C@H](CC(=O)O)NC(=O)[C@H](CO)NC(=O)[C@H](CCCNC(=N)N)N(C)C(=O)[C@@H](NC(C)=O)C(C)(C)SSC2(C)C)C(N)=O)C(N)=O)C(C)(C)SSC1(C)C [compound 217, (Ac-Pen-N-Me-R-S-D-T-L-Pen-W-E-k-NH2)2-DIG] (I: Ac-[Pen][NMeR]SDTL[Pen]WE[dK]-NH2 / II: Ac-[Pen][NMeR]SDTL[Pen]WE[dK]-NH2; disulfide I:1-I:7, II:1-II:7 (inferred); linker I:10-II:10 via Diglycolyl (inferred)) | 315 nM | 2.3 nM | 3.2 nM | – | – | – |
| CC(=O)N[C@@H]1C(=O)N(C)[C@@H](CCCNC(=N)N)C(=O)N[C@@H](CO)C(=O)N[C@@H](CC(=O)O)C(=O)N[C@@H]([C@@H](C)O)C(=O)N[C@@H](CC(C)C)C(=O)N[C@H](C(=O)N[C@@H](Cc2ccc(C(=O)O)cc2)C(=O)N[C@@H](CCC(=O)O)CC(=O)N[C@H](CCCCNC(=O)COCC(=O)NCCCC[C@@H](NC(=O)C[C@H](CCC(=O)O)NC(=O)[C@H](Cc2ccc(C(=O)O)cc2)NC(=O)[C@H]2NC(=O)[C@H](CC(C)C)NC(=O)[C@H]([C@@H](C)O)NC(=O)[C@H](CC(=O)O)NC(=O)[C@H](CO)NC(=O)[C@H](CCCNC(=N)N)N(C)C(=O)[C@@H](NC(C)=O)C(C)(C)SSC2(C)C)C(N)=O)C(N)=O)C(C)(C)SSC1(C)C [compound 130] (I: Ac-[Pen][NMeR]SDTL[Pen][Phe(4-COOH)][β3hE][dK]-NH2 / II: Ac-[Pen][NMeR]SDTL[Pen][Phe(4-COOH)][β3hE][dK]-NH2; disulfide I:1-I:7, II:1-II:7; linker I:10-II:10 via Diglycolyl) | – | – | – | 100 to 500 nM | < 10 nM | < 10 nM |
| CC(=O)N[C@@H]1C(=O)N(C)[C@@H](CCCNC(=N)N)C(=O)N[C@@H](CO)C(=O)N[C@@H](CC(=O)O)C(=O)N[C@@H]([C@@H](C)O)C(=O)N[C@@H](CC(C)C)C(=O)N[C@H](C(=O)N[C@@H](Cc2c[nH]c3ccccc23)C(=O)N[C@H](CCC(=O)O)C(=O)N[C@H](CCCCNC(=O)COCC(=O)NCCCC[C@@H](NC(=O)[C@@H](CCC(=O)O)NC(=O)[C@H](Cc2c[nH]c3ccccc23)NC(=O)[C@H]2NC(=O)[C@H](CC(C)C)NC(=O)[C@H]([C@@H](C)O)NC(=O)[C@H](CC(=O)O)NC(=O)[C@H](CO)NC(=O)[C@H](CCCNC(=N)N)N(C)C(=O)[C@@H](NC(C)=O)C(C)(C)SSC2(C)C)C(N)=O)C(N)=O)C(C)(C)SSC1(C)C [compound 211, (Ac-Pen-N-Me-R-S-D-T-L-Pen-W-e-k-NH2)2-DIG] (I: Ac-[Pen][NMeR]SDTL[Pen]W[dE][dK]-NH2 / II: Ac-[Pen][NMeR]SDTL[Pen]W[dE][dK]-NH2; disulfide I:1-I:7, II:1-II:7 (inferred); linker I:10-II:10 via Diglycolyl (inferred)) | 302 nM | 3 nM | 22 nM | – | – | – |
